Measured values as given in ChEMBL document CHEMBL3779792, “Anti-proliferative evaluation of monoterpene derivatives against leukemia” (Eur J Med Chem, 2016).
Activity calls are given as the source filed them. No cut-off for these calls is given here.

Columns and labels:
[1] = Cytotoxicity against human NALM6 cells after 72 hrs by Cell-Titer Glo assay; format: functional, cell-based; details: NALM-6, 72 h
[2] = Cytotoxicity against human SEM cells after 72 hrs by Cell-Titer Glo assay; format: functional, cell-based
HepG2 = assay: Cytotoxicity against human HepG2 cells after 72 hrs by Cell-Titer Glo assay; format: functional, cell-based; details: HepG2, 72 h
Raji = assay: Cytotoxicity against human Raji cells after 72 hrs by Cell-Titer Glo assay; format: functional, cell-based
Jurkat = assay: Cytotoxicity against human Jurkat cells after 72 hrs by Cell-Titer Glo assay; format: functional, cell-based
BJ = assay: Cytotoxicity against human BJ cells after 72 hrs by Cell-Titer Glo assay; format: cell-based
HEK293 = assay: Cytotoxicity against HEK293 cells after 72 hrs by Cell-Titer Glo assay; format: cell-based; details: Homo sapiens, HEK293, 72 h
NALM-6 [3] = assay: Induction of apoptosis in human NALM6 cells assessed as necrotic cells at 0.5 uM measured after 24 hrs by annexin V-propidium iodide staining based flow cytometric analysis (reference value: 0.0%); format: functional
NALM-6 [4] = assay: Induction of apoptosis in human NALM6 cells assessed as late apoptotic cells at 0.5 uM measured after 24 hrs by annexin V-propidium iodide staining based flow cytometric analysis (reference value: 4.3%); format: functional
NALM-6 [5] = assay: Induction of apoptosis in human NALM6 cells assessed as activated caspase3 level at 0.5 uM after 3 hrs by immunoblot analysis; format: functional, cell-based
NALM-6 [6] = assay: Induction of apoptosis in human NALM6 cells assessed as cleaved PARP level at 0.5 uM measured after 3 and 6 hrs by immunoblot analysis; format: functional, cell-based
NALM-6 [7] = assay: Induction of apoptosis in human NALM6 cells assessed as cleaved PARP level at 0.5 uM measured after 12 hrs by immunoblot analysis; format: functional, cell-based
SEM cells [8] = assay: Induction of apoptosis in human SEM cells assessed as activated caspase3 levels at 0.5 uM after 6 hrs by immunoblot analysis; format: functional, cell-based
[9] = Cytotoxicity in human SEM cells assessed as cell death at 1 uM after 24 hrs; format: cell-based
NALM-6 [10] = assay: Induction of apoptosis in human NALM6 cells assessed as early apoptotic cells at 0.5 uM measured after 24 hrs by annexin V-propidium iodide staining based flow cytometric analysis (reference value: 91.5%); format: functional
SEM cells [11] = assay: Effect on cell cycle in human SEM cells assessed as accumulation at G0/G1 phase at 1 uM after 24 hrs by propidium iodide staining based flow cytometry analysis (reference value: 45.75%); format: functional
SEM cells [12] = assay: Induction of apoptosis in human SEM cells assessed as necrotic cells at 1 uM measured after 24 hrs by annexin V-propidium iodide staining based flow cytometric analysis (reference value: 0.0%); format: functional
SEM cells [13] = assay: Induction of apoptosis in human SEM cells assessed as late apoptotic cells at 1 uM measured after 24 hrs by annexin V-propidium iodide staining based flow cytometric analysis (reference value: 7.2%); format: functional
SEM cells [14] = assay: Induction of apoptosis in human SEM cells assessed as early apoptotic cells at 1 uM measured after 24 hrs by annexin V-propidium iodide staining based flow cytometric analysis (reference value: 85.3%); format: functional
SEM cells [15] = assay: Induction of apoptosis in human SEM cells assessed as viable cells at 1 uM measured after 24 hrs by annexin V-propidium iodide staining based flow cytometric analysis (reference value: 1.5%); format: functional; details: read-out: Activity

| SMILES | EC50 [1] | EC50 [2] | EC50 (HepG2) | EC50 (Raji) | EC50 (Jurkat) | EC50 (BJ) | EC50 (HEK293) | Activity (NALM-6 [3]) | Activity (NALM-6 [4]) | Activity (NALM-6 [5]) | Activity (NALM-6 [6]) | Activity (NALM-6 [7]) | Activity (SEM cells [8]) | Activity [9] | Activity (NALM-6 [10]) | Activity (SEM cells [11]) | Activity (SEM cells [12]) | Activity (SEM cells [13]) | Activity (SEM cells [14]) | viability at 1 µM (SEM cells [15]) |
| --- | --- | --- | --- | --- | --- | --- | --- | --- | --- | --- | --- | --- | --- | --- | --- | --- | --- | --- | --- | --- |
| C=C[C@@](C)(/C=C/c1ccc(O)c(C=O)c1)CCC=C(C)C | 11.2 µM | 8.51 µM | > 52.1 µM | > 26 µM | > 49 µM | > 36.6 µM | > 36.6 µM |  |  |  |  |  |  |  |  |  |  |  |  |  |
| COc1ccc(/C=C/[C@@](C)(/C=C/c2ccc(O)c(/C=C/C(=O)c3ccccc3)c2)CCC=C(C)C)cc1 | > 43.5 µM | 30 µM | > 52.1 µM | > 26 µM | > 49 µM | > 36.6 µM | > 36.6 µM |  |  |  |  |  |  |  |  |  |  |  |  |  |
| C=C[C@@](C)(/C=C/c1ccc(O)cc1)CC/C=C/C(=O)c1ccccc1 | > 43.5 µM | > 36.6 µM | > 52.1 µM | > 26 µM | > 49 µM | > 36.6 µM | > 36.6 µM |  |  |  |  |  |  |  |  |  |  |  |  |  |
| COc1ccc(/C=C/[C@@](C)(/C=C/c2ccc(O)c(/C=C/C(=O)OCc3ccccc3)c2)CCC=C(C)C)cc1 | > 43.5 µM | > 36.6 µM | > 26 µM | > 26 µM | > 49 µM | > 36.6 µM | > 36.6 µM |  |  |  |  |  |  |  |  |  |  |  |  |  |
| C=C[C@@](C)(/C=C/c1ccc(OC)cc1)CCC=C(C)C | > 43.5 µM | > 36.6 µM | > 52.1 µM | > 26 µM | > 49 µM | > 36.6 µM | > 36.6 µM |  |  |  |  |  |  |  |  |  |  |  |  |  |
| C=C[C@@](C)(/C=C/c1ccc(O)c(/C=C/C(=O)O)c1)CCC=C(C)C | > 43.5 µM | > 36.6 µM | > 52.1 µM | > 26 µM | > 49 µM | > 36.6 µM | > 36.6 µM |  |  |  |  |  |  |  |  |  |  |  |  |  |
| C=C[C@@](C)(/C=C/c1ccc(O)cc1)CC/C=C/C(=O)OCC | > 43.5 µM | > 36.6 µM | > 52.1 µM | > 26 µM | > 49 µM | > 36.6 µM | > 36.6 µM |  |  |  |  |  |  |  |  |  |  |  |  |  |
| C=C[C@@](C)(/C=C/c1ccc(O)c(/C=C/C(=O)OCc2ccccc2)c1)CCC=C(C)C | > 43.5 µM | > 36.6 µM | > 52.1 µM | > 26 µM | > 49 µM | > 36.6 µM | > 36.6 µM |  |  |  |  |  |  |  |  |  |  |  |  |  |
| C=C[C@@](C)(/C=C/c1ccc(O)cc1)CC/C=C(\C)CO | > 43.5 µM | > 36.6 µM | > 52.1 µM | > 26 µM | > 49 µM | > 36.6 µM | > 36.6 µM |  |  |  |  |  |  |  |  |  |  |  |  |  |
| C=C[C@@](C)(/C=C/c1ccc(O)cc1)CCC=C(C)C [BAKUCHIOL] | 38 µM | 15.3 µM | > 52.1 µM | > 26 µM | > 49 µM | > 36.6 µM | > 36.6 µM |  |  |  |  |  |  |  |  |  |  |  |  |  |
| COc1ccc(/C=C/[C@@](C)(/C=C/c2ccc(O)c(C=O)c2)CCC=C(C)C)cc1 | > 43.5 µM | 4.55 µM | > 26 µM | 13 µM | > 49 µM | 9.8 µM | 2.27 µM |  |  |  |  |  |  |  |  |  |  |  |  |  |
| C=C[C@@](C)(/C=C/c1ccc(O)c(/C=C/c2ccc(F)cc2)c1)CCC=C(C)C | > 43.5 µM | > 36.6 µM | > 52.1 µM | > 26 µM | > 49 µM | > 36.6 µM | > 36.6 µM |  |  |  |  |  |  |  |  |  |  |  |  |  |
| CN[C@@H]1C[C@H]2O[C@@](C)([C@@H]1OC)n1c3ccccc3c3c4c(c5c6ccccc6n2c5c31)C(=O)NC4 [STAUROSPORINE] |  |  |  |  |  |  |  | 0% | 25% | Active | Active | Active | Active | Toxic | 49% | 100% | 0% | 85.3% | 2.6% | 5.5% |
| C=C[C@@](C)(/C=C/c1ccc(O)cc1)CC/C=C(C)/C=C/C(=O)OCC | 0.815 µM | > 36.6 µM | > 52.1 µM | > 26 µM | > 49 µM | > 36.6 µM | > 36.6 µM |  |  |  |  |  |  |  |  |  |  |  |  |  |
| C=C[C@@](C)(/C=C/c1ccc(O)c(/C=C/C(=O)NCc2ccc(C(F)(F)F)cc2)c1)CCC=C(C)C | > 43.5 µM | > 36.6 µM | > 52.1 µM | > 26 µM | > 49 µM | > 36.6 µM | > 36.6 µM |  |  |  |  |  |  |  |  |  |  |  |  |  |
| C=C[C@@](C)(/C=C/c1ccc(OS(=O)(=O)C(F)(F)F)cc1)CCC=C(C)C | > 43.5 µM | > 36.6 µM | > 52.1 µM | > 26 µM | > 49 µM | > 36.6 µM | > 36.6 µM |  |  |  |  |  |  |  |  |  |  |  |  |  |
| COc1ccc(/C=C/[C@@](C)(/C=C/c2ccc(O)c(/C=C/C(=O)OC(C)(C)C)c2)CCC=C(C)C)cc1 | > 43.5 µM | > 36.6 µM | > 52.1 µM | > 26 µM | > 49 µM | > 36.6 µM | > 36.6 µM |  |  |  |  |  |  |  |  |  |  |  |  |  |
